Here are results for one molecule from US20250032488A1, “METHODS OF TREATMENT USING LOU064” (NOVARTIS AG, priority 2021, published 2025).

The test system of data set [1] is patients with CSU. In words: Phase 2b trial in CSU: efficacy. The format is in vivo, human. To be noted: 25 mg b.i.d. regimen, 12 weeks. The protocol: In a Phase 2b, randomized, double-blind, placebo-controlled trial evaluating the efficacy and safety of remibrutinib over 12 weeks in patients inadequately controlled by H1-antihistamines, with at least moderately active CSU, patients received remibrutinib 10 mg q.d. (once daily), 35 mg q.d., 100 mg q.d., 10 mg b.i.d. (twice daily), 25 mg b.i.d., 100 mg b.i.d., or placebo (1:1:1:1:1:1:1 ratio).

The subject of data set [2] is BALB/c mice. In words: Passive cutaneous anaphylaxis (PCA) in mice: skin edema. In kind it is in vivo. To be noted: doses as low as 3 mg/kg, two oral administrations. The protocol:
(§1) LOU064 was tested in a murine PCA model. The model used BALB/c mice aged 8-10 weeks of age. For passive sensitization with hapten-specific IgE, mice under isoflurane anesthesia were given an intradermal injection of 20 μl anti-DNP IgE in saline into the right ear and 20 μl of saline into the left ear. For FccR-specific PCA, mice were given a low dose of 3 ng anti-DNP IgE. For maximal PCA mice were given a high dose of 25 ng anti-DNP IgE. LOU064 was administered p.o. in a volume of 5 ml/kg body weight. A first dose was administered 4 hours after sensitization on the evening before challenge. The next morning, 2 hours prior to hapten challenge, mice were given a second oral dose of LOU064.
Mice were challenged with hapten 2 hours after the second dose by placing them into a heated chamber. Animals were then injected i.v. with 100 μg of the hapten DNP-HSA (dinitrophenyl-human serum albumin) in 200 μl of 2% Evans blue diluted in PBS. The mice were then returned to their cage for exactly 30 minutes. Thirty minutes later, animals were then anesthetized with isoflurane and bled retro-orbitally using EDTA coated blood collection tubes for analysis of compound exposure. […] Twenty-four hours later 80 μl of formalin solution were transferred to a clear flat bottom 96 well plate and the optical absorption was read at 620 nm. […] Statistical significance was determined by ANOVA. […]

Data set [3] concerns human primary skin-derived mast cells. In words: Histamine release from skin-derived human mast cells. In kind it is cell-based. To be noted: Mast cell, n=2 donors. How it is done:
Rationale and method: Skin tissue was used as a source of primary human tissue mast cells. Surgical skin discard samples were provided under informed consent and collected by the University Hospital Basel in accordance with the Swiss Human Research Act and approval of the responsible ethic committee (Ethikkommission Nordwest und Zentralschweiz). Skin tissue was dissociated and intact mast cells were prepared according to the protocol of Kulka and Metcalfe (Kulka et al. 2010, current protocols in Immunology; SUPPL. 90:1-11). The isolated mast cells were characterized phenotypically and used for a degranulation assay as described above ((Neuberger, M.S. et al. (1985), Nature 314 (6008), pp 268-70. doi: 10.1038/314268a0). The mast cells were sensitized with JW8 IgE antibody and then pre-incubated with serial compound dilutions for 30 minutes at 37° C. Then degranulation was triggered by adding haptenized NIP-BSA to crosslink the FcERI. After 30 minutes, supernatants were collected and analyzed for histamine with an HTRF-based immunoassay (Cisbio Bioassays).

The nature of data set [4]: Concentrations of LOU064 in blood, PCA study. The format is in vivo, mice. To be noted: BALB/c, mouse, whole blood, oral, 2.5 hours after second dose, low-dose IgE sensitization, Mean ± SD (n = 5). The protocol:
as §1
Mice were challenged with hapten 2 hours after the second dose by placing them into a heated chamber. Animals were then injected i.v. with 100 μg of the hapten DNP-HSA (dinitrophenyl-human serum albumin) in 200 μl of 2% Evans blue diluted in PBS. The mice were then returned to their cage for exactly 30 minutes. Thirty minutes later, animals were then anesthetized with isoflurane and bled retro-orbitally using EDTA coated blood collection tubes for analysis of compound exposure. The mice were then sacrificed by cervical dislocation. A 6 mm punch biopsy was taken from both the left and the right ear and placed into 100 μl of formalin. The skin biopsies were incubated at 80° C. overnight to extract the dye. Twenty-four hours later 80 μl of formalin solution were transferred to a clear flat bottom 96 well plate and the optical absorption was read at 620 nm. Analysis was performed by subtracting the left ear (saline) from the right ear (IgE) to determine how much dye was released into the skin tissue of the biopsy. Statistical significance was determined by ANOVA. Spleens were removed for BTK occupancy analysis.
Analysis of blood level: Blood samples were taken as denoted and compound measurement was performed. Blood samples were spiked with a structurally similar internal standard mixed with acetonitrile (4 volumes) and centrifuged at ˜ 4000 rpm (4° C.). Supernatant was then transferred into a microtiter plate. An aliquot of each sample was injected into an LC-MS/MS system for determination of concentrations of the parent molecule.
The concentrations of LOU064 present in mouse blood, 2.5 hours after the second compound dose are shown for the low-dose IgE sensitization in Table 1.

Data set [5] has as its system LAD2 cells. In words: FcER-induced mast cell degranulation in LAD2 cells. The format is cell-based. To be noted: Homo sapiens, n=3, read-out: IC50, IgE/FcER-induced mast cell degranulation (β-tryptase). The text has this:
Rationale and method: The human mastocytosis cell line LAD2 expresses FcERI and upon crosslinking of the receptor the cells degranulate and release inflammatory mediators like β-tryptase and hexosaminidase (Wernersson et al. 2014, Immunology; 14 (7): 478-94). The assay involves 4-hydroxy-3-iodo-5-nitrophenylacetic acid (NIP) haptenized bovine serum albumin (BSA) and the NIP-specific chimeric IgE antibody JW8 (Neuberger, M.S. et al. (1985), Nature 314 (6008), pp 268-70. doi: 10.1038/314268a0). The LAD2 cells were sensitized with JW8 IgE antibody and then incubated with serial compound dilutions for 30 minutes at 37° C. Then degranulation was triggered by adding haptenized NIP-BSA to crosslink the FcER. After one hour, supernatants were collected and analyzed for B-tryptase levels.

Regarding `C=CC(=O)N(C)CCOc1c(N)ncnc1-c1cc(F)cc(NC(=O)c2ccc(C3CC3)cc2F)c1C` [LOU064, N-(3-(6-amino-5-(2-(N-methylacrylamido)ethoxy)pyrimidin-4-yl)-5-fluoro-2-methylphenyl)-4-cyclopropyl-2-fluorobenzamide], the “Efficacy in CSU” value in data set [1] is on record as “particularly effective”. Also, in data set [2], the “Inhibition of the anaphylactic response (PCA)” value is recorded as “near complete inhibition”. For the same molecule, the IC50 in data set [3] came out at 16.5 nM; in data set [5], 7 nM. In addition, the concentration at 2.5 h in data set [4] (3 mg/Kg p.o.) was 7 ± 2 nM; in data set [4] (10 mg/Kg p.o.), 35 ± 14 nM; in data set [4] (30 mg/Kg p.o.), 111 ± 56 nM; in data set [4] (100 mg/Kg p.o.), 488 ± 371 nM.
